Structures can show the parent of a compound that is named as a salt.
What was measured:
BRD4(BD1) = BRD4(BD1) (Homo sapiens (Human), UniProt O60885); experiment: In vitro enzyme inhibition assay (BRD4 AlphaScreen, H4-tetraacetyl peptide); type: binding; conditions: BRD4(BD1) 2 nM, peptide 15 nM
Description: Determination of the IC50 for the heterocyclic derivative BRD4 inhibitors disclosed herein was performed as follows. His-tagged […] was cloned, expressed and purified to homogeneity. Filipakopoulos et al., 468 Nature 1067 (2010). BRD4 binding and inhibition was assessed by monitoring the interaction of biotinylated H4-tetraacetyl peptide (AnaSpec, H4K5/8/12/16(Ac), biotin—labeled) with the target using the AlphaScreen technology (Life Technologies). In a 384-well ProxiPlate BRD4(BD1) (2 nM final) was combined with peptide (15 nM final) in 50 mM HEPES (pH 7.3), 10 mM NaCl, 0.25 mM TCEP, 0.1% (w/v) BSA, and 0.005% (w/v) Brij-35 either in the presence of DMSO (final 0.4% DMSO) or compound dilution series in DMSO. After 20 min incubation at RT, Alpha streptavidin donor beads and Nickel Chelate acceptor beads were added to a final concentration of 5 μg/mL. After 2 hr of equilibration, plates were read on an Envision instrument and the IC50 was calculated using a four parameter non-linear curve fit.
The ability of the compounds disclosed herein to inhibit BRD4 activity was quantified and the respective IC50 value was determined.

[1] = test system: Raji, human Burkitts lymphoma cells; experiment: Cell-MTS cellular proliferation assay, Raji; type: cell-based; conditions: Homo sapiens, 168 hr incubation
Description: (§1) A colorimetric cellular proliferation assay (Cell-MTS assay) was performed to assess the ability of the heterocyclic derivative […] inhibitors disclosed herein to effect the proliferation of established cancer cell lines.
(§2) The Cell-MTS assay is a 7-day plate-based colorimetric assay which quantifies the amount of newly generated NADH in the presence or absence of test compound. The NADH level is used for the quantification of cancer cell proliferation.
(§3) Established cancer cell lines with a variety of driving mutations were obtained from American Type Culture Collection (ATCC) and routinely passaged according to ATCC protocols. For routine assay, these cells were seeded at densities which enabled ˜90% confluence after 7 days of culture. Raji, human Burkitts lymphoma cells, (cMYC) were seeded at 15,000 cells per 96-well. HL-60, human proleukemia cells, (NRAS, p16, p53, c-Myc amplified) were seeded at 5,000 cells per 96-well. NCI-H460, human non-small cell lung cancer cells. (KRAS, PIK3CA, STLK11, p16) were seeded at 3,000 cells per 96-well. 24 hr after plating, cells received an 11 point dilution of test compound with final concentration ranges from 100 µM to 2.0 nM. Cells were incubated in the presence of compound for 168 hr at 37° C., and 5% CO2. At the end of this incubation period, 80 µL of media is removed and 20 µL of CellTiter 96® AQueous Non-Radioactive Cell Proliferation Assay solution (Promega) was added. The cells were incubated until the OD490 was >0.6. IC50 values were calculated using the IDBS XLfit software package and include background subtracted OD490 values and normalization to DMSO controls. Cellular proliferation IC50 values were uploaded and archived using the Chem Biography Platform. Table 3 provides the results of the in vitro enzyme inhibition assay experiments and the in vitro cell-based assay experiments performed with the compounds disclosed herein: […]

[2] = test system: HL-60, human proleukemia cells; experiment: Cell-MTS cellular proliferation assay, HL-60; type: cell-based; conditions: Homo sapiens, HL-60 cells, 168 hr incubation
Description: as §1, §2, §3

[3] = test system: NCI-H460, human non-small cell lung cancer cells; experiment: Cell-MTS cellular proliferation assay, NCI-H460; type: cell-based; conditions: Homo sapiens, 168 hr incubation
Description: as §1, §2, §3

SMILES	IC50 (BRD4(BD1)) [µM]	IC50 [1] [µM]	IC50 [2] [µM]	IC50 [3] [µM]
CCS(=O)(=O)Nc1cc(-c2cc(C)c(=O)n(C)c2)cc2c1ncn2Cc1ccc(F)cc1F [Example 41, N-[1-[(2,4-difluorophenyl)methyl]-6-(1,5-dimethyl-6-oxopyridin-3-yl)benzimidazol-4-yl]ethanesulfonamide]	≤ 0.5	≤ 0.5	≤ 0.5	0.5 to 5
Cc1cc(-c2cc(NS(C)(=O)=O)c3nc(C)n(Cc4cccc(F)c4)c3c2)cn(C)c1=O [Example 35, N-[6-(1,5-dimethyl-6-oxopyridin-3-yl)-1-[(3-fluorophenyl)methyl]-2-methylbenzimidazol-4-yl]methanesulfonamide]	≤ 0.5	≤ 0.5	≤ 0.5	0.5 to 5
COc1cc(-c2cc(NS(C)(=O)=O)c3nc(C)n(Cc4ccc(F)cc4)c3c2)cn(C)c1=O [Example 38, N-[1-[(4-fluorophenyl)methyl]-6-(5-methoxy-1-methyl-6-oxopyridin-3-yl)-2-methylbenzimidazol-4-yl]methanesulfonamide]	≤ 0.5	≤ 0.5	≤ 0.5	> 5
Cc1cc(-c2cc3c(cc2Oc2ccc(F)cc2F)CN(C)S3(=O)=O)cn(C)c1=O [Example 11, 5-[5-(2,4-difluorophenoxy)-2-methyl-1,1-dioxo-3H-1,2-benzothiazol-6-yl]-1,3-dimethylpyridin-2-one]	≤ 0.5	≤ 0.5	≤ 0.5	> 5
Cn1cc(-c2cc(S(C)(=O)=O)cc3cc(C4CC4)oc23)c2ccccc2c1=O [Example 24, 4-(2-cyclopropyl-5-methylsulfonyl-1-benzofuran-7-yl)-2-methylisoquinolin-1-one]	≤ 0.5	≤ 0.5	≤ 0.5	0.5 to 5
CCS(=O)(=O)Nc1cc(-c2cc(C)c(=O)n(C)c2)c2oc(C3CC3)nc2c1 [Example 47, N-[2-cyclopropyl-7-(1,5-dimethyl-6-oxopyridin-3-yl)-1,3-benzoxazol-5-yl]ethanesulfonamide]	≤ 0.5	≤ 0.5	≤ 0.5	> 5
CCS(=O)(=O)Nc1cc(-c2cc(C)c(=O)n(C)c2)cc2c1nc(C)n2Cc1cccc(F)c1 [Example 36, N-[6-(1,5-dimethyl-6-oxopyridin-3-yl)-1-[(3-fluorophenyl)methyl]-2-methylbenzimidazol-4-yl]ethanesulfonamide]	≤ 0.5	≤ 0.5	≤ 0.5	≤ 0.5
Cc1cc(-c2cc(NS(C)(=O)=O)c3ccn(Cc4ccccc4)c3c2)cn(C)c1=O [Example 18, N-[1-benzyl-6-(1,5-dimethyl-6-oxopyridin-3-yl)indol-4-yl]methanesulfonamide]	≤ 0.5	≤ 0.5	≤ 0.5	0.5 to 5
Cc1cc(-c2cc(S(C)(=O)=O)cc3cc(C4CC4)oc23)cn(C)c1=O [Example 23, 5-(2-cyclopropyl-5-methylsulfonyl-1-benzofuran-7-yl)-1,3-dimethylpyridin-2-one]	≤ 0.5	0.5 to 5	≤ 0.5	> 5
COc1cc2c(cc1-c1cc(C)c(=O)n(C)c1)S(=O)(=O)N(C)C2 [Example 3, 5-(5-methoxy-2-methyl-1,1-dioxo-3H-1,2-benzothiazol-6-yl)-1,3-dimethylpyridin-2-one]	≤ 0.5	> 5	0.5 to 5	> 5

The next lines start with the values.

IC50 (BRD4(BD1)) [µM]	IC50 [1] [µM]	IC50 [2] [µM]	IC50 [3] [µM]	SMILES
≤ 0.5	≤ 0.5	≤ 0.5	> 5	COc1cc(-c2cc(NS(C)(=O)=O)c3nc(C(F)(F)F)n(CC4CC4)c3c2)cn(C)c1=O [Example 93, N-[1-(cyclopropylmethyl)-6-(5-methoxy-1-methyl-6-oxopyridin-3-yl)-2-(trifluoromethyl)benzimidazol-4-yl]methanesulfonamide]
≤ 0.5	≤ 0.5	≤ 0.5	> 5	Cc1cc(-c2cc3c(nc(C)n3Cc3ccc(F)cc3F)c(NS(C)(=O)=O)n2)cn(C)c1=O [Example 62, N-[1-[(2,4-difluorophenyl)methyl]-6-(1,5-dimethyl-6-oxopyridin-3-yl)-2-methylimidazo[4,5-c]pyridin-4-yl]methanesulfonamide]
≤ 0.5	≤ 0.5	≤ 0.5	> 5	Cc1cc(-c2cc(CS(C)(=O)=O)c3nc(C)n(CC4CC4)c3c2)cn(C)c1=O [Example 96, 5-[3-(cyclopropylmethyl)-2-methyl-7-(methylsulfonylmethyl)benzimidazol-5-yl]-1,3-dimethylpyridin-2-one]
≤ 0.5	≤ 0.5	≤ 0.5	0.5 to 5	Cc1cc(-c2cc(NS(C)(=O)=O)cc3cc(C4CC4)oc23)cn(C)c1=O [Example 80, N-[2-cyclopropyl-7-(1,5-dimethyl-6-oxopyridin-3-yl)-1-benzofuran-5-yl]methanesulfonamide]
≤ 0.5	0.5 to 5	0.5 to 5	0.5 to 5	Cc1cc(-c2cc(NS(C)(=O)=O)cc3cc(-c4ccccc4)oc23)cn(C)c1=O [Example 83, N-[7-(1,5-dimethyl-6-oxopyridin-3-yl)-2-phenyl-1-benzofuran-5-yl]methane-sulfonamide]
≤ 0.5	≤ 0.5	≤ 0.5	0.5 to 5	COc1nc2c(NS(C)(=O)=O)cc(-c3cc(C)c(=O)n(C)c3)cc2n1CC1CC1 [Example 73, N-[1-(cyclopropylmethyl)-6-(1,5-dimethyl-6-oxopyridin-3-yl)-2-methoxybenzimidazol-4-yl]methanesulfonamide]
≤ 0.5	≤ 0.5	≤ 0.5	0.5 to 5	CCS(=O)(=O)N1CCOc2cc(OCC3CC3)c(-c3cn(C)c(=O)c4ccccc34)cc21 [Example 49, 4-[7-(cyclopropylmethoxy)-4-ethylsulfonyl-2,3-dihydro-1,4-benzoxazin-6-yl]-2-methylisoquinolin-1-one]
≤ 0.5	≤ 0.5	≤ 0.5	≤ 0.5	Cn1cc(-c2cc(NS(C)(=O)=O)cc3cc(C4CC4)oc23)c2ccccc2c1=O [Example 79, N-[2-cyclopropyl-7-(2-methyl-1-oxoisoquinolin-4-yl)-1-benzofuran-5-yl]methanesulfonamide]
≤ 0.5	≤ 0.5	≤ 0.5	≤ 0.5	Cn1cc(-c2cc(NS(C)(=O)=O)cc3cc(-c4ccccc4)oc23)c2ccccc2c1=O [Example 84, N-[7-(2-methyl-1-oxoisoquinolin-4-yl)-2-phenyl-1-benzofuran-5-yl]methanesulfonamide]
≤ 0.5	≤ 0.5	≤ 0.5	> 5	CCCCn1c(C)nc2c(NS(C)(=O)=O)cc(-c3cc(C)c(=O)n(C)c3)cc21 [Example 94, N-[1-butyl-6-(1,5-dimethyl-6-oxopyridin-3-yl)-2-methylbenzimidazol-4-yl]methanesulfonamide hydrochloride]
≤ 0.5	0.5 to 5	0.5 to 5	> 5	Cc1cc(-c2cc(NS(C)(=O)=O)c3oc(=O)n(CC4CC4)c3c2)cn(C)c1=O [Example 101, N-[3-(cyclopropylmethyl)-5-(1,5-dimethyl-6-oxopyridin-3-yl)-2-oxo-1,3-benzoxazol-7-yl]methanesulfonamide]
≤ 0.5	0.5 to 5	≤ 0.5	> 5	Cc1cc(-c2cc(S(C)(=O)=O)ccc2OCC2CC2)c2n(c1=O)CCC2 [Example 85, 8-[2-(cyclopropylmethoxy)-5-methylsulfonylphenyl]-6-methyl-2,3-dihydro-1H-indolizin-5-one]
